From PubChem BioAssay AID1259407 (Chemical Carcinogenesis Research Information System (CCRIS), 2018)
Calls of active or inactive are those of the source. The rule behind the calls is not given here.

System: CCRIS mutagenicity, Ames/micronucleus/aberration tests
Assay: CCRIS mutagenicity studies
Conditions: Test System: AMES SALMONELLA TYPHIMURIUM
[1] = Strain/Indicator: TA100, Metabolic Activation: RAT, LIVER, S-9, AROCLOR 1254, Method: STANDARD PLATE
[2] = Strain/Indicator: TA98, Metabolic Activation: NONE, Method: PREINCUBATION
[3] = Strain/Indicator: TA100, Metabolic Activation: NONE, Method: PREINCUBATION

With `Clc1ccc(Cl)nc1` the mutagenic call (Strain/Indicator: TA97, Metabolic Activation: NONE, Method: STANDARD PLATE) was “inactive; negative”, the mutagenic call (Strain/Indicator: TA97, Metabolic Activation: RAT, LIVER, S-9, AROCLOR 1254, Method: STANDARD PLATE) was “inactive; negative” and the mutagenic call (Strain/Indicator: TA98, Metabolic Activation: NONE, Method: STANDARD PLATE) was “inactive; negative”. The mutagenic call (Strain/Indicator: TA98, Metabolic Activation: RAT, LIVER, S-9, AROCLOR 1254, Method: STANDARD PLATE) was “inactive; negative”, the mutagenic call (Strain/Indicator: TA100, Metabolic Activation: NONE, Method: STANDARD PLATE) was “inactive; negative” and the mutagenic call [1] was “inactive; negative”. For the same molecule, the mutagenic call (Strain/Indicator: TA102, Metabolic Activation: NONE, Method: STANDARD PLATE) was “inactive; negative” and the mutagenic call (Strain/Indicator: TA102, Metabolic Activation: RAT, LIVER, S-9, AROCLOR 1254, Method: STANDARD PLATE) was “inactive; negative”.

In the case of `Cc1ccc2nc3c(c(C)c2c1)[C@@H](O)[C@H](O)c1ccccc1-3`, the mutagenic call [1] is reported as “inactive; negative”.

In the case of `CCCC(=O)Cl`, the mutagenic call (Strain/Indicator: TA98, Metabolic Activation: HAMSTER, LIVER, S-9, AROCLOR 1254 (30%), Method: PREINCUBATION) is reported as “inactive; negative”, the mutagenic call [2] is reported as “inactive; negative” and the mutagenic call (Strain/Indicator: TA98, Metabolic Activation: RAT, LIVER, S-9, AROCLOR 1254 (30%), Method: PREINCUBATION) is reported as “inactive; negative”. The mutagenic call (Strain/Indicator: TA100, Metabolic Activation: HAMSTER, LIVER, S-9, AROCLOR 1254 (30%), Method: PREINCUBATION) was “inactive; negative”, the mutagenic call [3] was “inactive; negative” and the mutagenic call (Strain/Indicator: TA100, Metabolic Activation: RAT, LIVER, S-9, AROCLOR 1254 (30%), Method: PREINCUBATION) was “inactive; negative”.

With `O=C(Cl)c1ccccc1F` the mutagenic call (Strain/Indicator: TA98, Metabolic Activation: HAMSTER, LIVER, S-9, AROCLOR 1254, Method: PREINCUBATION) was “active; positive”, the mutagenic call [2] was “inactive; negative” and the mutagenic call (Strain/Indicator: TA98, Metabolic Activation: RAT, LIVER, S-9, AROCLOR 1254, Method: PREINCUBATION) was “active; positive”. For the same molecule, the mutagenic call (Strain/Indicator: TA100, Metabolic Activation: HAMSTER, LIVER, S-9, AROCLOR 1254, Method: PREINCUBATION) was “active; positive”, the mutagenic call [3] was “inactive; negative” and the mutagenic call (Strain/Indicator: TA100, Metabolic Activation: RAT, LIVER, S-9, AROCLOR 1254, Method: PREINCUBATION) was “active; positive”. The mutagenic call (Strain/Indicator: TA1535, Metabolic Activation: HAMSTER, LIVER, S-9, AROCLOR 1254, Method: PREINCUBATION) was “inactive; negative”, the mutagenic call (Strain/Indicator: TA1535, Metabolic Activation: NONE, Method: PREINCUBATION) was “inactive; negative” and the mutagenic call (Strain/Indicator: TA1535, Metabolic Activation: RAT, LIVER, S-9, AROCLOR 1254, Method: PREINCUBATION) was “inactive; negative”. The mutagenic call (Strain/Indicator: TA1537, Metabolic Activation: HAMSTER, LIVER, S-9, AROCLOR 1254, Method: PREINCUBATION) was “inactive; negative”, the mutagenic call (Strain/Indicator: TA1537, Metabolic Activation: NONE, Method: PREINCUBATION) was “inactive; negative” and the mutagenic call (Strain/Indicator: TA1537, Metabolic Activation: RAT, LIVER, S-9, AROCLOR 1254, Method: PREINCUBATION) was “inactive; negative”.

In the case of `COc1ccc2c(c1)C(=O)c1nccc3cc4c(c-2c13)OCO4`, the mutagenic call (Strain/Indicator: TA98, Metabolic Activation: RAT, LIVER, S-9, PHENOBARBITAL AND BETA-NAPHTHOFLAVONE, Method: PREINCUBATION) is reported as “active; positive” and the mutagenic call (Strain/Indicator: TA100, Metabolic Activation: RAT, LIVER, S-9, PHENOBARBITAL AND BETA-NAPHTHOFLAVONE, Method: PREINCUBATION) is reported as “active; positive”.
